Laboratory results reported in the supplement of paper PMC10307832.

Key:
Assay in all cases: relative viability (nuclei count vs DMSO), 5 days (fraction); higher = more cells survive
HCC-44 = test system: HCC-44
In short: (§1)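 Lung cancer cell lines were pin-tool dosed in 1536-well plates on the day after seeding, with either a lone drug or a fixed anchor-drug dose plus five library-drug doses (not always all listed) in √10 steps. Nuclei were counted on 4× images after 5 days. Relative viability is the ratio of treated-well to vehicle-well nuclei counts, with each value a median of duplicate plates.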

SK-MES-1 = test system: SK-MES-1
In short: as §1

NCI-H520 = test system: NCI-H520
In short: as §1

NCI-H1915 = test system: NCI-H1915
In short: as §1

LXF-289 = test system: LXF-289
In short: as §1

COR-L 105 = test system: COR-L 105
In short: as §1

LOU-NH91 = test system: LOU-NH91
In short: as §1

NCI-H1975 = test system: NCI-H1975
In short: as §1

NCI-H1793 = test system: NCI-H1793
In short: as §1

NCI-H2023 = test system: NCI-H2023
In short: as §1

## Cc1csc(=NC2CCCCC2)n1/N=C/c1ccc(O)c(O)c1O [MIM1] + CC1(C)CCC(c2ccc(Cl)cc2)=C(CN2CCN(c3ccc(C(=O)NS(=O)(=O)c4ccc(N[C@H](CCN5CCOCC5)CSc5ccccc5)c(S(=O)(=O)C(F)(F)F)c4)cc3)CC2)C1 [Navitoclax] (partner 0.5 µM)
HCC-44; first compound 0.2 µM
  relative viability: 0.93
HCC-44; first compound 0.6325 µM
  relative viability: 1.01
HCC-44; first compound 2 µM
  relative viability: 0.74
HCC-44; first compound 6.325 µM
  relative viability: 0.612
HCC-44; first compound 20 µM
  relative viability: 0.277
SK-MES-1; first compound 0.2 µM
  relative viability: 1.29
SK-MES-1; first compound 0.6325 µM
  relative viability: 1.26
SK-MES-1; first compound 2 µM
  relative viability: 1.28
SK-MES-1; first compound 6.325 µM
  relative viability: 0.939
SK-MES-1; first compound 20 µM
  relative viability: 0.795
NCI-H520; first compound 0.2 µM
  relative viability: 1.08
NCI-H520; first compound 0.6325 µM
  relative viability: 1.06
NCI-H520; first compound 2 µM
  relative viability: 1.06
NCI-H520; first compound 6.325 µM
  relative viability: 0.832
NCI-H520; first compound 20 µM
  relative viability: 0.517
NCI-H1915; first compound 0.2 µM
  relative viability: 0.791
NCI-H1915; first compound 0.6325 µM
  relative viability: 0.696
NCI-H1915; first compound 2 µM
  relative viability: 0.781
NCI-H1915; first compound 6.325 µM
  relative viability: 0.62
NCI-H1915; first compound 20 µM
  relative viability: 0.656
LXF-289; first compound 0.2 µM
  relative viability: 0.921
LXF-289; first compound 0.6325 µM
  relative viability: 0.939
LXF-289; first compound 2 µM
  relative viability: 0.921
LXF-289; first compound 6.325 µM
  relative viability: 0.768
LXF-289; first compound 20 µM
  relative viability: 0.487
COR-L 105; first compound 0.2 µM
  relative viability: 0.78
COR-L 105; first compound 0.6325 µM
  relative viability: 0.8
COR-L 105; first compound 2 µM
  relative viability: 0.732
COR-L 105; first compound 6.325 µM
  relative viability: 0.628
COR-L 105; first compound 20 µM
  relative viability: 0.54
LOU-NH91; first compound 0.2 µM
  relative viability: 0.588
LOU-NH91; first compound 0.6325 µM
  relative viability: 0.69
LOU-NH91; first compound 2 µM
  relative viability: 0.532
LOU-NH91; first compound 6.325 µM
  relative viability: 0.492
LOU-NH91; first compound 20 µM
  relative viability: 0.313
NCI-H1975; first compound 0.2 µM
  relative viability: 1.16
NCI-H1975; first compound 0.6325 µM
  relative viability: 1.23
NCI-H1975; first compound 2 µM
  relative viability: 1.04
NCI-H1975; first compound 6.325 µM
  relative viability: 0.732
NCI-H1975; first compound 20 µM
  relative viability: 0.761
NCI-H1793; first compound 0.2 µM
  relative viability: 0.438
NCI-H1793; first compound 0.6325 µM
  relative viability: 0.546
NCI-H1793; first compound 2 µM
  relative viability: 0.436
NCI-H1793; first compound 6.325 µM
  relative viability: 0.475
NCI-H1793; first compound 20 µM
  relative viability: 0.47
NCI-H2023; first compound 0.2 µM
  relative viability: 0.992
NCI-H2023; first compound 0.6325 µM
  relative viability: 1.03
